# Read-outs that look alike come from different tables or passages of the source.
# Columns and labels:
# alpha 2C receptor = target: T1, alpha 2C receptor (Homo sapiens, UniProt P18825); experiment: Receptor Selection and Amplification technology (RSAT) assay, alpha 2C; assay type: cell-based; conditions: for Alpha 2C intrinsic activity (relative efficacy): RSAT, number in parentheses, ratio of maximal effect to that of standard full agonist brimonidine (UK14304)
# T1 construct: expressed in transfected cells; host or cells: NIH-3T3 cells
# T1 sequence (P18825 1-462): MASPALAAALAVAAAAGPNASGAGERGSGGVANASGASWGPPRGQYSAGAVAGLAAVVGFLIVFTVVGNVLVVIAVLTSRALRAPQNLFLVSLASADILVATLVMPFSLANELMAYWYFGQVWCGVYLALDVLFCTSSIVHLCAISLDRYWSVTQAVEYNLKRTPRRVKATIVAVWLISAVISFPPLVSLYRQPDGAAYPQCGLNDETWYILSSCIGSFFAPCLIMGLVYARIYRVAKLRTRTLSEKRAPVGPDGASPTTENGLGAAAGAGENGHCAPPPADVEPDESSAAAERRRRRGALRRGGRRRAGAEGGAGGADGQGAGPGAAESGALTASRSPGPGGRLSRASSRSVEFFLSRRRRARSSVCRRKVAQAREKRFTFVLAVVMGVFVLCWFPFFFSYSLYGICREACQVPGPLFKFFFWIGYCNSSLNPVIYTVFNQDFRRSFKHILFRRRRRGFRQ
# Source text: The compounds disclosed herein are agonists of alpha 2B/2C adrenergic receptors. […] 76, pp. 308-311 (incorporated herein by reference) and is also described below. Another reference pertinent to this assay is Conklin et al. (1993) Nature 363: 274-6, also incorporated herein by reference.
# (§1) The RSAT assay measures a receptor-mediated loss of contact inhibition that results in selective proliferation of receptor-containing cells in a mixed population of confluent cells. The increase in cell number is assessed with an appropriate transfected marker gene such as β-galactosidase, the activity of which can be easily measured in a 96-well format. Receptors that activate the G protein, Gq, elicit this response. Alpha 2 receptors, which normally couple to Gi, activate the RSAT response when coexpressed with a hybrid Gq protein that has a G; receptor recognition domain, called Gq/i5.
# (§2) NIH-3T3 cells are plated at a density of 2×10^6 cells in 15 cm dishes and maintained in Dulbecco's modified Eagle's medium supplemented with 10% calf serum. One day later, cells are cotransfected by calcium phosphate precipitation with mammalian expression plasmids encoding p-SV-β-galactosidase (5-10 μg), receptor (1-2 μg) and G protein (1-2 μg). 40 μg salmon sperm DNA may also be included in the transfection mixture. Fresh media is added on the following day and 1-2 days later, cells are harvested and frozen in 50 assay aliquots. Cells are thawed and 100 μl added to 100 μl aliquots of various concentrations of drugs in triplicate in 96-well dishes. Incubations continue 72-96 hr at 37° C. After washing with phosphate-buffered saline, .E-backward.-galactosidase enzyme activity is determined by adding 200 μl of the chromogenic substrate (consisting of 3.5 mM o-nitrophenyl-beta-D-galactopyranoside and 0.5% nonidet P-40 in phosphate buffered saline), incubating overnight at 30° C. and measuring optical density at 420 nm. The absorbance is a measure of enzyme activity, which depends on cell number and reflects a receptor-mediated cell proliferation. The efficacy or intrinsic activity is calculated as a ratio of the maximal effect of the drug to the maximal effect of a standard full agonist for each receptor subtype. Brimonidine, also called UK14304, the chemical structure of which is shown below, is used as the standard agonist for the alpha 2A, alpha 2B and alpha 2C receptors.
# alpha 2B receptor = target: T2, alpha 2B receptor (Homo sapiens, UniProt P18089); experiment: Receptor Selection and Amplification technology (RSAT) assay, alpha 2B; assay type: cell-based; conditions: for Alpha 2B intrinsic activity (relative efficacy): RSAT, number in parentheses, ratio of maximal effect to that of standard full agonist brimonidine (UK14304)
# T2 construct: expressed in transfected cells; host or cells: NIH-3T3 cells
# T2 sequence (P18089 1-450): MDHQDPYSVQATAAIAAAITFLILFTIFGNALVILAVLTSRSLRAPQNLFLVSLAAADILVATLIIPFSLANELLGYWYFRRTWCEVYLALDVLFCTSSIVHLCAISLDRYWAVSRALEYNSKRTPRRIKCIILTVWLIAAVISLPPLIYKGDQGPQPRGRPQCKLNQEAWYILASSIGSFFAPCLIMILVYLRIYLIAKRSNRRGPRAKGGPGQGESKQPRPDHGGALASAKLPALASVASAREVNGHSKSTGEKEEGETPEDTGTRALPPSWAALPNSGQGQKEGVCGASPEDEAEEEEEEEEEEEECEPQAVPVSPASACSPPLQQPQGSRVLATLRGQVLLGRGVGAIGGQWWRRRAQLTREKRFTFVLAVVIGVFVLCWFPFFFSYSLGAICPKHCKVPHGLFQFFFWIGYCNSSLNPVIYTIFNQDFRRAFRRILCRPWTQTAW
# Method: as §1, §2
# [1] = RSAT in transfected NIH-3T3 cells, number outside parentheses, read-out: Alpha 2C potency (EC50)
# [2] = RSAT in transfected NIH-3T3 cells, number outside parentheses, read-out: Alpha 2B potency (EC50)
SMILES,EC50 (alpha 2C receptor; [1]),Alpha 2C intrinsic activity (relative efficacy) (alpha 2C receptor),EC50 (alpha 2B receptor; [2]),Alpha 2B intrinsic activity (relative efficacy) (alpha 2B receptor),EC50 (alpha 2C receptor),EC50 (alpha 2B receptor)
Cc1c(Cl)cccc1C(c1ccccc1)c1c[nH]cn1 (stereo not shown),411 nM,.35,18 nM,1.35,,
Clc1cccc(C(c2ccccc2)c2c[nH]cn2)c1Cl (stereo not shown),332 nM,.40,6.9 nM,1.19,,
Fc1c(Cl)cccc1C(c1ccccc1)c1c[nH]cn1 (stereo not shown),,No Data (.21),44 nM,.91,,
Cc1ccccc1C(c1ccccc1)c1c[nH]cn1 (stereo not shown),,.64,,.99,1900 nM,55 nM
Fc1cccc(C(c2ccccc2)c2c[nH]cn2)c1F (stereo not shown),,No Data (.22),62 nM,1.10,,
Fc1cccc(C(c2ccccc2)c2c[nH]cn2)c1 (stereo not shown),,No Data (.15),,1.00,,332 nM
Fc1c(C(c2ccccc2)c2c[nH]cn2)cccc1C(F)(F)F (stereo not shown),,No Data (.12),21 nM,.89,,
Cc1cccc(C(c2ccccc2)c2c[nH]cn2)c1C (stereo not shown),91 nM,1.02,1.8 nM,1.23,,

# Reference: patent US8227499B2, “Substituted-aryl-(imidazole)-methyl)-phenyl compounds as subtype selective modulators of alpha 2B and/or alpha 2C adrenergic receptors” (Allergan, Inc., priority 2008, dated 2012)
